Laboratory results published in patent US20220169643A1, “ESTROGEN RECEPTOR DEGRADING PROTACS” (AstraZeneca AB, priority 2019, published 2022).

biological target: T1, Estrogen Receptor Alpha Ligand binding domain (ER alpha-LBD (GST)) (Homo sapiens, UniProt P03372); test: ERα Binding Assay (LanthaScreen TR-FRET competition); conditions: competitive displacement of Fluormone ES2 tracer from recombinant human ER alpha-LBD (residues 307-554), 4 hours at room temperature
T1 construct: made in house
T1 sequence (P03372 307-554): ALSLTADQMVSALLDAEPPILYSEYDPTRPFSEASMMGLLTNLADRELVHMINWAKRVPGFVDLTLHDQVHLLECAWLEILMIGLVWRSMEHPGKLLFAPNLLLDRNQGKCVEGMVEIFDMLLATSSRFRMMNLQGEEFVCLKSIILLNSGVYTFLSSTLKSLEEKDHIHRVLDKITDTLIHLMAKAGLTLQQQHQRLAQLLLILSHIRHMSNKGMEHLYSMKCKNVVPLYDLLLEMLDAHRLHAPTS
Description: The ability of compounds to bind to isolated Estrogen Receptor Alpha Ligand binding domain (ER alpha-LBD (GST)) was assessed in competition assays using a LanthaScreen™ Time-Resolved Fluorescence Resonance Energy Transfer (TR-FRET) detection end-point. For the LanthaScreen TR-FRET endpoint, a suitable fluorophore (Fluormone ES2, ThermoFisher, Product code P2645) and recombinant human Estrogen Receptor alpha ligand binding domain, residues 307-554 (expressed and purified in-house) were used to measure compound binding. The assay principle is that ER alpha-LBD (GST) is added to a fluorescent ligand to form a receptor/fluorophore complex. A terbium-labelled anti-GST antibody (Product code PV3551) is used to indirectly label the receptor by binding to its GST tag, and competitive binding is detected by a test compound's ability to displace the fluorescent ligand, resulting in a loss of TR-FRET signal between the Th-anti-GST antibody and the tracer. The assay was performed as follows with all reagent additions carried out using the Beckman Coulter BioRAPTR FRD microfluidic workstation: • 1. Acoustic dispense 120 nL of the test compound into a black low volume 384 well assay plates. • 2. Prepare 1×ER alpha-LBD/Tb-anti-GST Ab in ES2 screening buffer and incubate for 15 minutes. • 3. Dispense 6 μL of the 1×[…]/Th-anti-GST Ab reagent into each well of the assay plate followed by 6 μL of Fluorophore reagent into each well of the assay plate • 4. Cover the assay plate to protect the reagents from light and evaporation, and incubate at room temperature for 4 hours. • 5. Excite at 337 nm and measure the fluorescent emission signal of each well at 490 nm and 520 nm using the BMG PheraSTAR.
Compounds were dosed directly from a compound source microplate containing serially diluted compound (4 wells containing 10 mM, […] and 10 nM final compound respectively) to an assay microplate using the Labcyte Echo 550. The Echo 550 is a liquid handler that uses acoustic technology to perform direct microplate-to-microplate transfers of DMSO compound solutions and the system can be programmed to transfer multiple small nL volumes of compound from the different source plate wells to give the desired serial dilution of compound in the assay which is then back-filled to normalise the DMSO concentration across the dilution range.
In total 120 nL of compound plus DMSO were added to each well and compounds were tested in a 12-point concentration response format over a final compound concentration range of 10, 2.917, 1.042, 0.2083, 0.1, 0.0292, 0.0104, 0.002083, 0.001, 0.0002917, 0.0001042, and 0.00001 μM respectively. TR-FRET dose response data obtained with each compound was exported into a suitable software package (such as Origin or Genedata) to perform curve fitting analysis. Competitive ER alpha binding was expressed as an IC50 value. This was determined by calculation of the concentration of compound that was required to give a 50% reduction in tracer compound binding to ER alpha-LBD.

Structure (SMILES) | IC50
C[C@@H]1Cc2c([nH]c3ccccc23)[C@@H](c2cnc(N3CCC(CN4CCN(c5ccc6c(c5)CN(C5CCC(=O)NC5=O)C6=O)CC4)CC3)nc2)N1CC(F)(F)F (stereo partly drawn) [Example 35, 3-(5-{4-[(1-{5-[(1R,3R)-3-methyl-2-(2,2,2-trifluoroethyl)-2,3,4,9-tetrahydro-1H-beta-carbolin-1-yl]pyrimidin-2-yl}piperidin-4-yl)methyl]piperazin-1-yl}-1-oxo-1,3-dihydro-2H-isoindol-2-yl)piperidine-2,6-dione] | 6.9 nM
C[C@@H]1Cc2c([nH]c3ccccc23)[C@@H](c2cnc(N3CCC(CCN4CCN(c5ccc6c(c5)CN(C5CCC(=O)NC5=O)C6=O)CC4)CC3)nc2)N1CC(F)(F)F (stereo partly drawn) [Example 15, 3-(5-{4-[2-(1-{5-[(1R,3R)-3-methyl-2-(2,2,2-trifluoroethyl)-2,3,4,9-tetrahydro-1H-beta-carbolin-1-yl]pyrimidin-2-yl}piperidin-4-yl)ethyl]piperazin-1-yl}-1-oxo-1,3-dihydro-2H-isoindol-2-yl)piperidine-2,6-dione] | 3.7 nM
C[C@@H]1Cc2c([nH]c3ccccc23)[C@@H](c2cnc(N3CCC(CCN4CCOC5(CC4)CCN(c4ccc6c(c4)CN(C4CCC(=O)NC4=O)C6=O)CC5)CC3)nc2)N1CC(C)(C)F (stereo partly drawn) [Example 20, 3-(5-{10-[2-(1-{5-[(1R,3R)-2-(2-fluoro-2-methylpropyl)-3-methyl-2,3,4,9-tetrahydro-1H-beta-carbolin-1-yl]pyrimidin-2-yl}piperidin-4-yl)ethyl]-7-oxa-3,10-diazaspiro[5.6]dodecan-3-yl}-1-oxo-1,3-dihydro-2H-isoindol-2-yl)piperidine-2,6-dione] | 2 nM
